Measurements: US20070105874A1, “Anti-Tumor Methods Using Multi Drug Resistance Independent Synthetic HSP90 Inhibitors” (Conforma Therapeutics Corporation, priority 2005, published 2007)

Key:
[1] = test system: H295R adrenal cortical carcinoma cells; experiment: MTS cytotoxicity assay in H295R adrenal cortical carcinoma cells; settings: 5 days
Description: H295R cells were plated in 96-well plate at low confluence and were analyzed for IC50 as described in FIG. 2 with indicated compounds.
(§1) MTS assays measure the cytotoxicity of the compounds. […] Cells were seeded in 96 well plates at 2000 cells/well and allowed to adhere overnight in Dulbecco's modified Eagle's medium supplemented with 10% fetal bovine serum. The final culture volume was 100 μl. Viable cell number was determined by using the Celltiter 96 AQueous Non-radioactive Cell Proliferation Assay (Promega, Madison Wis.). The MTS/PMS (phenazine methosulfate) solution was mixed at a ratio of 20:1, and 20 μL was added per well to 100 μl of culture medium. After 2-4 hours, the formation of the formazan product was measured at 490 nm absorbance using a multiwell plate spectrophotometer. Background was determined by measuring the Abs 490 nm of cell culture medium and MTS-PMS in the absence of cells and was subtracted from all values. Percent viable cells was calculated as follows: % viable cells=(Abs at 490 nm treated cells/Abs at 490 nm untreated cells)×100

P-gp = biological target: T1, P-gp (Homo sapiens, UniProt P08183); experiment: Rhodamine 123 retention (P-gp efflux inhibition) in H295R cells; assay type: cell-based; settings: rhodamine 123, concentrations up to 10 mM
T1 construct: adrenocortical carcinoma, a tumor that naturally expresses P-gp; endogenous in cells; host or cells: H295R adrenal cortical carcinoma cells
Description: Rhodamine 123 level within cells was measured by flow cytometry as described in FIG. 9.

[2] = test system: P-gp over-expressing MES SA Dx5 and NCI/ADR-Res cells; experiment: MTS cytotoxicity assay in P-gp over-expressing versus non-expressing cell lines; assay type: cell-based
Description: The cell lines were plated in 96-well plate at 10-20% confluence and treated with increasing concentrations of indicated drug from 1 nM to 10 mM. 5 days later, the surviving fraction was estimated by MTS assay.
as §1

Structure (SMILES) | cytotoxic potency in adrenal cortical carcinoma [1] | inhibitory effect on P-gp efflux activity (P-gp) | P-gp substrate status ([2]; cytotoxicity in cell lines expressing P-gp or MRP to various extent) | increase of IC50 in P-gp+++ lines ([2]; P-gp+++ lines)
C=CCNC1=C2CC(C)CC(OC)C(O)C(C)/C=C(\C)C(OC(N)=O)C(OC)/C=C\C=C(/C)C(=O)NC(=CC1=O)C2=O (centres unmarked) [Compound 17-AAG, (4E,6Z,10E)-19-(allylamino)-13-hydroxy-8,14-dimethoxy-4,10,12,16-tetramethyl-3,20,22-trioxo-2-azabicyclo[16.3.1]docosa-1(21),4,6,10,18-pentaen-9-yl carbamate] | more potent than CsA | No inhibitory effect |  | 
CO[C@H]1/C=C\C=C(/C)C(=O)NC2=CC(=O)C(NCCN(C)C)=C(C[C@@H](C)C[C@H](OC)[C@H](O)[C@@H](C)/C=C(\C)[C@@H]1OC(N)=O)C2=O [Compound 17-DMAG, (4E,6Z,8S,9S,10E,12S,13R,14S,16R)-19-(2-(dimethylamino)ethylamino)-13-hydroxy-8,14-dimethoxy-4,10,12,16-tetramethyl-3,20,22-trioxo-2-azabicyclo[16.3.1]docosa-1(21),4,6,10,18-pentaen-9-yl carbamate] | weak |  | P-gp substrates | 
COc1c(C)cnc(Cn2cc(C#CCCC(N)=O)c3c(Cl)nc(N)nc32)c1C [Compound XI, 5-(2-amino-4-chloro-7-((4-methoxy-3,5-dimethylpyridin-2-yl)methyl)-7H-pyrrolo[2,3-d]pyrimidin-5-yl)pent-4-ynamide] |  |  |  | 10-20 fold
